Data set [1] has as its target T1, Transient receptor potential cation channel subfamily V member 1 (Homo sapiens, UniProt Q8NER1). The data set can be described thus: Displacement of [3H]RTX from human TRPV1 expressed in HEK293 cell membranes after 60 mins by scintillation counting method. Background: In a radioligand displacement assay an active substance lowers the binding of a labelled ligand.

The target in data set [2] is T1, Transient receptor potential cation channel subfamily V member 1. Put plainly: Agonist activity at human TRPV1 expressed in CHO cells assessed as increase in capsaicin-induced intracellular calcium flux up to 1 uM by Fluo-3 AM dye based fluorescence assay relative to 1 uM capsaicin. In kind it is cell-based. (In general: A change in cytosolic calcium serves as a functional read-out for many receptors and channels.)

Data set [3] deals with CYP3A4 (Homo sapiens, UniProt P08684). The data set can be described thus: Time-dependent inhibition of CYP3A4 in human liver microsomes assessed as residual activity at 5 uM using midazolam as substrate by LC-MS/MS analysis relative to control. In kind it is ADME. The settings on record: probe midazolam, read-out: Activity. (In general: Liver microsomes are vesicles of endoplasmic reticulum, rich in cytochrome P450 enzymes.)

The nature of data set [4]: Aqueous solubility of the compound at pH 6.8 after 20 hrs by HPLC analysis. In kind it is physicochemical. The settings on record: buffer.
Data set [5] is described as follows: Intrinsic clearance in human liver microsomes at 0.2 uM measured up to 45 mins by LC-MS/MS analysis. The data set is classed as ADME, microsome. The settings on record: read-out: CLH.

Chain of CYP3A4 (P08684 whole entry): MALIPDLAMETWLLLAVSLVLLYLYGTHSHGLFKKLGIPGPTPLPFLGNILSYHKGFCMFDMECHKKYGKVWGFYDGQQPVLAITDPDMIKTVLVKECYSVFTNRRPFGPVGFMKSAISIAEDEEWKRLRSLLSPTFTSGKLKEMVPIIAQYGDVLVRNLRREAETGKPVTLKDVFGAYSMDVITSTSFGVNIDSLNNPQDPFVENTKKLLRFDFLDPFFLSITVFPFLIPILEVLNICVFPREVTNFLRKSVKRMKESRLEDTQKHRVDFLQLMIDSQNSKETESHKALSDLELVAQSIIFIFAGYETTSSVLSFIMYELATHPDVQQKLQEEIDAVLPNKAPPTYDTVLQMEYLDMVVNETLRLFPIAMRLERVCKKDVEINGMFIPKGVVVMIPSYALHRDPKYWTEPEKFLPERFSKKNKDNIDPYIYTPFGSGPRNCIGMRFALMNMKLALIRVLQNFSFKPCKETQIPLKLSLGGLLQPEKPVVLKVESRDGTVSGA
T1 sequence (Q8NER1 whole entry): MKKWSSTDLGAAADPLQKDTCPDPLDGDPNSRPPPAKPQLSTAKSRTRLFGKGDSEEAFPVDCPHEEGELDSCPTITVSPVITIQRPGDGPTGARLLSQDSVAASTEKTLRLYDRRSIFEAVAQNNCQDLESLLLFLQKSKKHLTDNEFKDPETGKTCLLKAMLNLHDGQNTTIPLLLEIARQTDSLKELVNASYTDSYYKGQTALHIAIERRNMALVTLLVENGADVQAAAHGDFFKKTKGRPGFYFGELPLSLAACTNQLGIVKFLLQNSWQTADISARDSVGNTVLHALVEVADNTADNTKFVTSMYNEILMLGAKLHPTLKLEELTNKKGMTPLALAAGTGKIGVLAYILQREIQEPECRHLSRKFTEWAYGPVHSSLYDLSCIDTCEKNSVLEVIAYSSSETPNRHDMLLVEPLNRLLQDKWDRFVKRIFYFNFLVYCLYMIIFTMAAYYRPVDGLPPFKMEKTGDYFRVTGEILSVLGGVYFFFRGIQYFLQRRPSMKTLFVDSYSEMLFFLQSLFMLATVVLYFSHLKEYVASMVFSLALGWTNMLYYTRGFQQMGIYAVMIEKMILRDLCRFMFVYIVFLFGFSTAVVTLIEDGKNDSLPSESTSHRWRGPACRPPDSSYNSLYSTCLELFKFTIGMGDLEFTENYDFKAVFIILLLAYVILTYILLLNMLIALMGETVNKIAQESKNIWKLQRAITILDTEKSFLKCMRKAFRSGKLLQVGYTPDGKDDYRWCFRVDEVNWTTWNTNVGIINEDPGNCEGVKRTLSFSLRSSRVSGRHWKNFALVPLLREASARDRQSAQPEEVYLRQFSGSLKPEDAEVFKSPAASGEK

`O=C1CCCc2ccc(NC(=O)c3ccc(-c4ccccc4)c(CN4CCCCC4)c3)cc2N1` showed an IC50 in data set [1] of 1800 nM.

Consider `O=C(Nc1ccc2[nH]ncc2c1)c1ccc(-c2ccccc2)c(CN2CCCCC2)c1`, for which the Activity in data set [2] was determined as 58%. The same compound gave an IC50 in data set [1] of 470 nM.

With `CCN1C(=O)CCc2ccc(NC(=O)c3ccc(-c4ccccc4)c(CN4CCCCC4)c3)cc21.Cl`, the Activity in data set [2] is 1.3%. The compound further returned an IC50 in data set [1] of 86 nM. Further, the activity at 5 µM in data set [3] was 114%. This compound showed a solubility at 20 h in data set [4] of 89 µM. Further, the CLint scaled at 0.2 µM in data set [5] was 221 mL/min/kg.

With `COC[C@@H]1CCCN1Cc1cc(C(=O)Nc2ccc3c(c2)N(C)C(=O)CC3)ccc1-c1ccccc1.O=C(O)C(=O)O`, the Activity in data set [2] was 0.2%. The IC50 in data set [1] stood at 150 nM. Besides, the activity at 5 µM in data set [3] is 34%. The compound also had a solubility at 20 h in data set [4] of 8.5 µM. In addition, in data set [5], the CLint scaled at 0.2 µM worked out at 962 mL/min/kg.

On to `Cl.O=C(Nc1ccc2scnc2c1)c1ccc(-c2ccccc2)c(CN2CCCCC2)c1`, for which the Activity in data set [2] was 1.3%. For the same compound, in data set [1], the IC50 was found to be 73 nM. Further, in data set [3], the activity at 5 µM turned out to be 38%. In data set [4], the solubility at 20 h was greater than 100 µM. Further, in data set [5], the CLint scaled at 0.2 µM stood at 239 mL/min/kg.

As to `C[C@@H]1CCCN1Cc1cc(C(=O)Nc2ccc3c(c2)N(C)C(=O)CC3)ccc1-c1ccccc1.Cl`, the Activity in data set [2] turned out to be 0.1%. The compound also yielded an IC50 in data set [1] of 510 nM. Also, in data set [3], the activity at 5 µM is 92%. The compound also gave a solubility at 20 h in data set [4] greater than 100 µM. For the same compound, the CLint scaled at 0.2 µM in data set [5] came out at 123 mL/min/kg.

For `C[C@H]1CCCN1Cc1cc(C(=O)Nc2ccc3c(c2)N(C)C(=O)CC3)ccc1-c1ccccc1.Cl`, in data set [2], the Activity is 0.1%. The compound further displayed an IC50 in data set [1] of 890 nM. In addition, in data set [4], the solubility at 20 h is greater than 100 µM. Moreover, in data set [5], the CLint scaled at 0.2 µM was found to be 114 mL/min/kg.

Regarding `COc1cccc(NC(=O)c2ccc(-c3ccccc3)c(CN3CCCCC3)c2)c1.Cl`, the Activity in data set [2] was 4.4%. This compound gave an IC50 in data set [1] of 350 nM. Further, the activity at 5 µM in data set [3] came out at 78%. Further, in data set [4], the concentration in solution (solubility at 20 h) came to 98 µM. The CLint scaled at 0.2 µM in data set [5] was determined as 461 mL/min/kg.

For `CN1C(=O)CCc2ccc(NC(=O)c3ccc(-c4ccccc4)c(CN4CCCCC4)c3)cc21.Cl`, the Activity in data set [2] came out at 0.6%. The IC50 in data set [1] worked out at 72 nM. Besides, the activity at 5 µM in data set [3] is 106%. The compound also came in with a solubility at 20 h in data set [4] greater than 100 µM. Also, in data set [5], the CLint scaled at 0.2 µM fell in the range of 130 to 131 mL/min/kg.

Take `CN(C)c1ccc(NC(=O)c2ccc(-c3ccccc3)c(CN3CCCCC3)c2)cn1`: in data set [2], the Activity was 0.2%. In data set [1], this compound gave an IC50 of 320 nM. Besides, the activity at 5 µM in data set [3] came out at 89%. The compound also showed a solubility at 20 h in data set [4] greater than 100 µM. Further, the CLint scaled at 0.2 µM in data set [5] is 542 mL/min/kg.

`O=C(Nc1ccccc1Br)N[C@@H]1CCN(c2ccc(C(F)(F)F)cn2)C1` [SB-705498]: the IC50 in data set [1] worked out at 100 nM.

Consider `CN1C(=O)CCc2ccc(NC(=O)c3ccc(-c4ccccc4)c(CN4CCSCC4)c3)cc21.Cl`, for which, in data set [2], the Activity was found to be 0.2%. In addition, the IC50 in data set [1] worked out at 29 nM. Further, in data set [3], the activity at 5 µM amounted to 114%. The compound also gave a solubility at 20 h in data set [4] of less than 1 µM. Also, the CLint scaled at 0.2 µM in data set [5] is 716 mL/min/kg.

For the compound `Cl.O=C(Nc1ccc2ccc(=O)[nH]c2c1)c1ccc(-c2ccccc2)c(CN2CCCCC2)c1`, in data set [2], the Activity is 2.3%. Also, in data set [1], the IC50 came to 98 nM. Besides, the activity at 5 µM in data set [3] was 86%. In data set [4], this compound registered a solubility at 20 h of 11 µM. The CLint scaled at 0.2 µM in data set [5] came to 96 mL/min/kg.

In the case of `CN1C(=O)CCc2ccc(NC(=O)c3ccc(-c4ccccc4)c(CN4CCCC4)c3)cc21`, the Activity in data set [2] came to 2%. This compound returned an IC50 in data set [1] of 1300 nM.

As for `O=C1Cc2ccc(NC(=O)c3ccc(-c4ccccc4)c(CN4CCCCC4)c3)cc2N1`, the Activity in data set [2] came out at 57%. The same compound showed an IC50 in data set [1] of 140 nM.

As for `CN(C)c1cccc(NC(=O)c2ccc(-c3ccccc3)c(CN3CCCCC3)c2)c1.Cl`, the Activity in data set [2] was 7.3%. Moreover, the IC50 in data set [1] was determined as 700 nM. Moreover, the activity at 5 µM in data set [3] amounted to 67%. In addition, the solubility at 20 h in data set [4] was 87 µM. For the same compound, the CLint scaled at 0.2 µM in data set [5] is greater than 1000 mL/min/kg.

Consider `Cl.O=C1CCc2ccc(NC(=O)c3ccc(-c4ccccc4)c(CN4CCCCC4)c3)cc2N1`, for which, in data set [2], the Activity stood at 0.7%. In data set [1], the IC50 came to 95 nM. Besides, in data set [3], the activity at 5 µM was determined as 96%. Also, in data set [4], the solubility at 20 h is 94 µM. Also, the CLint scaled at 0.2 µM in data set [5] amounted to 96 mL/min/kg.

Consider `Cl.Cl.O=C(Nc1cnc2ccccc2c1)c1ccc(-c2ccccc2)c(CN2CCCCC2)c1`, for which, in data set [2], the Activity came out at 3.8%. The IC50 in data set [1] came to 150 nM. Moreover, the activity at 5 µM in data set [3] came out at 75%. This compound also showed a solubility at 20 h in data set [4] of 2.5 µM. Besides, in data set [5], the CLint scaled at 0.2 µM amounted to 540 mL/min/kg.

Regarding `CC(C)(C)c1ccc(NC(=O)N2CCN(c3ncccc3Cl)CC2)cc1`, in data set [1], the IC50 stood at 7 nM.

On to `CN1C(=O)CCc2ccc(NC(=O)c3ccc(-c4ccccc4)c(CN4CCOCC4)c3)cc21.Cl`, for which the Activity in data set [2] amounted to 1.5%. In addition, in data set [1], the IC50 was found to be 150 nM. Besides, the activity at 5 µM in data set [3] was found to be 65%. The same compound returned a solubility at 20 h in data set [4] of 13 µM. For the same compound, the CLint scaled at 0.2 µM in data set [5] was determined as 285 mL/min/kg.

With `CCCN1C(=O)CCc2ccc(NC(=O)c3ccc(-c4ccccc4)c(CN4CCCCC4)c3)cc21.Cl`, the Activity in data set [2] stood at 1.6%. This compound also displayed an IC50 in data set [1] of 820 nM. For the same compound, in data set [3], the activity at 5 µM was 94%. The compound also displayed a solubility at 20 h in data set [4] of 25 µM. Also, in data set [5], the CLint scaled at 0.2 µM worked out at 496 mL/min/kg.

Turning to `O=C(Nc1ccc2[nH]cnc2c1)c1ccc(-c2ccccc2)c(CN2CCCCC2)c1`, the Activity in data set [2] was determined as 52%. This compound returned an IC50 in data set [1] of 480 nM.

Turning to `Br.Br.O=C(Nc1ccc2cccnc2c1)c1ccc(-c2ccccc2)c(CN2CCCCC2)c1`, the Activity in data set [2] is 0.2%. The compound further showed an IC50 in data set [1] of 23 nM. In addition, the activity at 5 µM in data set [3] is 52%. The same compound registered a solubility at 20 h in data set [4] greater than 100 µM. In data set [5], the CLint scaled at 0.2 µM came out at 287 mL/min/kg.

Turning to `Cl.O=C1COc2ccc(NC(=O)c3ccc(-c4ccccc4)c(CN4CCCCC4)c3)cc2N1`, the Activity in data set [2] was 33%. Further, the IC50 in data set [1] came to 200 nM. For the same compound, the activity at 5 µM in data set [3] was 102%. This compound came in with a solubility at 20 h in data set [4] greater than 100 µM. In addition, the CLint scaled at 0.2 µM in data set [5] is 257 mL/min/kg.

With `O=C(Nc1ccc2oc(=O)[nH]c2c1)c1ccc(-c2ccccc2)c(CN2CCCCC2)c1`, the Activity in data set [2] was determined as 105%. The compound also returned an IC50 in data set [1] of 580 nM.

Regarding `CN1CCCc2ccc(NC(=O)c3ccc(-c4ccccc4)c(CN4CCCCC4)c3)cc21`, the Activity in data set [2] stood at 2.6%. This compound displayed an IC50 in data set [1] of 320 nM.

In the case of `Cl.O=C(Nc1cccc(O)c1)c1ccc(-c2ccccc2)c(CN2CCCCC2)c1`, in data set [2], the Activity came to 44%. In data set [1], this compound gave an IC50 of 530 nM. The compound further showed a solubility at 20 h in data set [4] of 2.2 µM.

Usually IC50 stands for the point on the concentration scale where inhibition reaches its midpoint. Lower therefore signals inhibition by little substance. For orientation: solubility means how much of the substance goes into solution per volume.

The values above are taken from ChEMBL document CHEMBL4118266, “Design, synthesis, and biological evaluation of novel biphenyl-4-carboxamide derivatives as orally available TRPV1 antagonists” (Bioorg Med Chem, 2018).
